# Biological target: T1, Protein Tat (Human immunodeficiency virus type 1 group M subtype B (isolate PCV12)(HIV-1), UniProt P04326)
# T1 sequence (P04326 whole entry): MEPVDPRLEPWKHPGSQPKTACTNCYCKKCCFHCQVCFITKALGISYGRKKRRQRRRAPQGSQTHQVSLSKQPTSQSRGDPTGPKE
# Assay: Inhibition of Tat peptide binding to HIV-1 TAR RNA
# Parameters: species or system Human immunodeficiency virus type 1 (CLONE 12)
row,IC50 [µM],SMILES
1,1.7,NC1C[C@@H](N)[C@@H](O)[C@@H](O)C1O[C@@H]1OC(CNC(=O)c2ccc3ccc4cccc5ccc2c3c45)C(O)[C@H](O)[C@@H]1N (some centres undefined)
2,0.6,N=C(N)NCCCC(N)C(=O)NCC1O[C@@H](OC2C(N)C[C@@H](N)[C@@H](O)[C@H]2O)[C@@H](N)[C@@H](O)C1O (some centres undefined)
3,0.028,N=C(N)NCCCC(NC(=O)c1ccc2ccc3cccc4ccc1c2c34)C(=O)NCC1OC(OC2C(N)CC(N)C(O)C2O)C(N)C(O)C1O (centres undefined)

row,SMILES,IC50 [µM]
1,"NC[C@H]1OC(O[C@H]2[C@H](O)C(O)[C@H](N)C[C@@H]2N)C(N)[C@@H](O)[C@@H]1O (single isomer, unassigned) [NEAMINE]",28

# — ChEMBL document CHEMBL1134709 (Bioorg Med Chem Lett, 2001)
